How the values were obtained:
[1] = Stability test in human serum; assay type: in vitro ADME; conditions: 36.5° C., after 2 hours
Protocol: The stability test in human serum is to test the stability when it comes into contact with human serum after administration to the human body, and the stability in the body is partly tested in vitro.
(§1) In order to examine the stability of [^99mTc]Tc-15 according to the present invention in human serum, 3.7 MBq of [^99mTc]Tc-15 (100 μL) prepared in Example 3 was added to 1 mL of human serum, mixed well, and then cultured at 36.5° C. with stirring. After 2 hours, the reaction mixture was analyzed by ITLC.
as §1, with “of [^99mTc]Tc-16” for “of [^99mTc]Tc-15”, “Example 4” for “Example 3”

[2] = target: PSMA (Homo sapiens, UniProt Q04609); conditions: 22Rv1 cells, 1 hour at 37° C., non-specific binding with 250 μM PMPA, nonlinear regression
Sequence of PSMA (Q04609 whole entry): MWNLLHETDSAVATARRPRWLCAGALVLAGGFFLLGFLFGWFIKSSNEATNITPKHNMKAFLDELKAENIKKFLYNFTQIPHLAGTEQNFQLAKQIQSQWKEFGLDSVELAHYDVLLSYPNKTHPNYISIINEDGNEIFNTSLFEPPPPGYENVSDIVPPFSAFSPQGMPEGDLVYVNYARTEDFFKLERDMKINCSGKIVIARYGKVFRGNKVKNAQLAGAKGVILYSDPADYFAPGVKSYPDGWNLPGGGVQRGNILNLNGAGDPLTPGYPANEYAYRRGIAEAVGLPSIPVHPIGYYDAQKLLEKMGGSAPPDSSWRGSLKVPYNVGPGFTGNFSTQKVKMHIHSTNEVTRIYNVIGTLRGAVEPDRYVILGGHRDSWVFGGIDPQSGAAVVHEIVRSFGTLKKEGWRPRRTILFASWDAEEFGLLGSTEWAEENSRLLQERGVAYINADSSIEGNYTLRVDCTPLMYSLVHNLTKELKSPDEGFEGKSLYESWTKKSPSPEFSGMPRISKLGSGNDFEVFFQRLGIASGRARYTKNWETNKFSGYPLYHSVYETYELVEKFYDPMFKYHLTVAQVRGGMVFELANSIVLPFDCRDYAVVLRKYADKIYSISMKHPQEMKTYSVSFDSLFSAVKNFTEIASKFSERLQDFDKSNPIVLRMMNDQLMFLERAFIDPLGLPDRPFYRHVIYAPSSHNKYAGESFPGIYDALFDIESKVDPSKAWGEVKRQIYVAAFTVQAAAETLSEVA
Protocol: The PSMA-positive prostate cancer cell line 22Rv1 was placed in a 24-well plate at the density of 1×10^5 cells/well, followed by culture in a 37° C., 5% CO2 incubator for 24 hours. […] 0.5 mL of the diluted solution was taken and put into cultured cells and incubated in a 37° C., 5% CO2 incubator for 1 hour. After removing the culture medium, the cells were washed twice with fresh culture medium, 1 mL of 0.5% sodium dodecyl sulfate (SDS) dissolved in phosphate buffered saline was added thereto, gently shaken to dissolve, and then transferred to a 5 mL disposable plastic test tube. The radioactivity of the tube was measured using a gamma counter. […] Specific binding was obtained by subtracting non-specific binding from total binding, and a saturation curve was drawn. […] From these saturation curves, the dissociation constant, Kd, was calculated by nonlinear regression using GraphPad Prism 7 program.

[3] = test system: PSMA-targeted 22Rv1 tumor; test: In vivo distribution test in cancer transplantation animals; design: species or system BALB/c male nude mice; conditions: for intake when PSMA was blocked with PMPA / tissue with highest intake: summary of Tables 2 and 3
Protocol: Specifically, 0.1 mL of RPMI1640 culture medium containing 5×10^6 22 Rv1 cells was subcutaneously injected into the left flank of a 4-week-old male BALB/c nude mouse. After 2 to 3 weeks, the present inventors confirmed that the tumor tissue had reached an appropriate size and used it in the experiment. For animal injection, [^99mTc]Tc-15 prepared in Example 3 and [^99mTc]Tc-16 prepared in Example 4 were each diluted in saline for injection to a concentration of 0.74 MBq/100 μL. Each of these was injected into the tail vein of the mice transplanted with cancer cells, and after 1 hour and 4 hours, cancer, blood, muscle, heart. Lung, liver, spleen, stomach, small intestine, kidney, bone, and the like were collected and their weight and radioactivity were measured.

[4] = test system: PSMA-expressing 22Rv1 tumor; test: SPECT imaging in 22Rv1 cell-transplanted mice; assay type: in vivo, BALB/c nude mouse; conditions: for tumor intake in SPECT image with PSMA blocked: MIP-1072 injected to selectively block PSMA; for tumor intake in SPECT image: intravenous injection; for distribution observed in SPECT image: 1 hour and 3 hours
Protocol: Specifically, 0.1 mL of RPMI1640 culture medium containing 5×10^6 22 Rv1 cells was subcutaneously injected into the right back of a 4-week-old male BALE/c nude mouse. After 2 to 3 weeks, the present inventors confirmed that the tumor tissue had reached an appropriate size and used it in the experiment. For animal injection, [^99mTc]Tc-15 and [^99mTc]Tc-16 were each diluted in saline for injection to a concentration of 10.2 MBq/100 μL. […]

[5] = 1 h Blockade, co-injection of 2-PMPA (100 μg)
[6] = 4 h Blockade, co-injection of 2-PMPA (100 μg)

## [99Tc+].[C-]#[N+]CCC(=O)NCCCCCC(=O)NCCCCC(NC(=O)N[C@@H](CCC(=O)O)C(=O)O)C(=O)O.[C-]#[N+]CCC(=O)NCCCCCC(=O)NCCCCC(NC(=O)N[C@@H](CCC(=O)O)C(=O)O)C(=O)O.[C-]#[N+]CCC(=O)NCCCCCC(=O)NCCCCC(NC(=O)N[C@@H](CCC(=O)O)C(=O)O)C(=O)O.[C-]#[O+].[C-]#[O+].[C-]#[O+] (some centres unmarked) [[^99mTc]Tc-15]
[1]
  stability in human serum (ITLC): most of them were present as [^99mTc]Tc-15 and hardly separated as ^99mTc
[2]
  Kd: 5.5 nM
[3]; 1 h
  In vivo distribution, Blood: 0.60 % ID/g
  In vivo distribution, Bone: 0.34 % ID/g
  In vivo distribution, Heart: 0.22 % ID/g
  In vivo distribution, Intestine: 0.78 % ID/g
  In vivo distribution, Kidney: 59.59 % ID/g
  In vivo distribution, Liver: 0.94 % ID/g
  In vivo distribution, Lung: 0.64 % ID/g
  In vivo distribution, Muscle: 0.17 % ID/g
  In vivo distribution, Spleen: 0.90 % ID/g
  In vivo distribution, Stomach: 0.31 % ID/g
  In vivo distribution, Tumor: 1.48 % ID/g
  Tumor/blood: 2.5
  Tumor/kidney: 0.02
  Tumor/liver: 1.57
  Tumor/muscle: 8.5
[3]; [5]
  In vivo distribution, Blood: 0.52 % ID/g
  In vivo distribution, Bone: 0.26 % ID/g
  In vivo distribution, Heart: 0.16 % ID/g
  In vivo distribution, Intestine: 0.55 % ID/g
  In vivo distribution, Kidney: 4.22 % ID/g
  In vivo distribution, Liver: 0.84 % ID/g
  In vivo distribution, Lung: 0.61 % ID/g
  In vivo distribution, Muscle: 0.11 % ID/g
  In vivo distribution, Spleen: 0.15 % ID/g
  In vivo distribution, Stomach: 0.17 % ID/g
  In vivo distribution, Tumor: 0.38 % ID/g
  Tumor/blood: 0.73
  Tumor/kidney: 0.09
  Tumor/liver: 0.45
  Tumor/muscle: 3.5
[3]; 4 h
  In vivo distribution, Blood: 0.31 % ID/g
  In vivo distribution, Bone: 0.16 % ID/g
  In vivo distribution, Heart: 0.12 % ID/g
  In vivo distribution, Intestine: 0.81 % ID/g
  In vivo distribution, Kidney: 13.72 % ID/g
  In vivo distribution, Liver: 0.85 % ID/g
  In vivo distribution, Lung: 0.30 % ID/g
  In vivo distribution, Muscle: 0.08 % ID/g
  In vivo distribution, Spleen: 0.26 % ID/g
  In vivo distribution, Stomach: 0.15 % ID/g
  In vivo distribution, Tumor: 0.81 % ID/g
  Tumor/blood: 2.6
  Tumor/kidney: 0.06
  Tumor/liver: 0.96
  Tumor/muscle: 10.4
[3]; [6]
  In vivo distribution, Blood: 0.31 % ID/g
  In vivo distribution, Bone: 0.20 % ID/g
  In vivo distribution, Heart: 0.10 % ID/g
  In vivo distribution, Intestine: 0.97 % ID/g
  In vivo distribution, Kidney: 1.44 % ID/g
  In vivo distribution, Liver: 0.84 % ID/g
  In vivo distribution, Lung: 0.30 % ID/g
  In vivo distribution, Muscle: 0.08 % ID/g
  In vivo distribution, Spleen: 0.16 % ID/g
  In vivo distribution, Stomach: 0.14 % ID/g
  In vivo distribution, Tumor: 0.20 % ID/g
  Tumor/blood: 0.65
  Tumor/kidney: 0.14
  Tumor/liver: 0.24
  Tumor/muscle: 2.71
[3]
  intake when PSMA was blocked with PMPA: the intake was decreased
  tissue with highest intake: the highest intake in the kidney
[4]
  tumor intake in SPECT image with PSMA blocked: tumor intake was not observed
[4]; 1 hour and 3 hours after the injection
  tumor intake in SPECT image: no clear intake was observed
[4]; tail vein injection
  distribution observed in SPECT image: not only excreted by the kidney but also ingested into the prostate cancer tissue

## [99Tc+].[C-]#[N+]CCC(=O)NCCCCCC(=O)NC(Cc1ccccc1)C(=O)N[C@H](Cc1ccccc1)C(=O)NCCCCCC(=O)NCCCCC(NC(=O)N[C@@H](CCC(=O)O)C(=O)O)C(=O)O.[C-]#[N+]CCC(=O)NCCCCCC(=O)NC(Cc1ccccc1)C(=O)N[C@H](Cc1ccccc1)C(=O)NCCCCCC(=O)NCCCCC(NC(=O)N[C@@H](CCC(=O)O)C(=O)O)C(=O)O.[C-]#[N+]CCC(=O)NCCCCCC(=O)NC(Cc1ccccc1)C(=O)N[C@H](Cc1ccccc1)C(=O)NCCCCCC(=O)NCCCCC(NC(=O)N[C@@H](CCC(=O)O)C(=O)O)C(=O)O.[C-]#[O+].[C-]#[O+].[C-]#[O+] (some centres unmarked) [[^99mTc]Tc-16]
[1]
  stability in human serum (ITLC): most of them were present as [^99mTc]Tc-16 and hardly separated as ^99mTc
[2]
  Kd: 0.2 nM
[3]; 1 h
  In vivo distribution, Blood: 0.42 % ID/g
  In vivo distribution, Bone: 0.63 % ID/g
  In vivo distribution, Heart: 0.36 % ID/g
  In vivo distribution, Intestine: 0.47 % ID/g
  In vivo distribution, Kidney: 24.66 % ID/g
  In vivo distribution, Liver: 1.17 % ID/g
  In vivo distribution, Lung: 0.52 % ID/g
  In vivo distribution, Muscle: 0.13 % ID/g
  In vivo distribution, Spleen: 3.40 % ID/g
  In vivo distribution, Stomach: 0.85 % ID/g
  In vivo distribution, Tail: 0.49 % ID/g
  In vivo distribution, Tumor: 1.87 % ID/g
  Tumor/blood: 4.43
  Tumor/kidney: 0.08
  Tumor/liver: 1.60
  Tumor/muscle: 14.05
[3]; [5]
  In vivo distribution, Blood: 0.75 % ID/g
  In vivo distribution, Bone: 1.16 % ID/g
  In vivo distribution, Heart: 0.48 % ID/g
  In vivo distribution, Intestine: 0.85 % ID/g
  In vivo distribution, Kidney: 5.66 % ID/g
  In vivo distribution, Liver: 1.95 % ID/g
  In vivo distribution, Lung: 1.63 % ID/g
  In vivo distribution, Muscle: 0.22 % ID/g
  In vivo distribution, Spleen: 0.40 % ID/g
  In vivo distribution, Stomach: 1.04 % ID/g
  In vivo distribution, Tail: 1.18 % ID/g
  In vivo distribution, Tumor: 0.45 % ID/g
  Tumor/blood: 0.61
  Tumor/kidney: 0.08
  Tumor/liver: 0.23
  Tumor/muscle: 2.16
[3]; 4 h
  In vivo distribution, Blood: 0.17 % ID/g
  In vivo distribution, Bone: 1.04 % ID/g
  In vivo distribution, Heart: 0.25 % ID/g
  In vivo distribution, Intestine: 1.48 % ID/g
  In vivo distribution, Kidney: 39.65 % ID/g
  In vivo distribution, Liver: 0.69 % ID/g
  In vivo distribution, Lung: 0.36 % ID/g
  In vivo distribution, Muscle: 0.07 % ID/g
  In vivo distribution, Spleen: 3.44 % ID/g
  In vivo distribution, Stomach: 0.42 % ID/g
  In vivo distribution, Tail: 0.48 % ID/g
  In vivo distribution, Tumor: 2.83 % ID/g
  Tumor/blood: 16.70
  Tumor/kidney: 0.07
  Tumor/liver: 4.17
  Tumor/muscle: 40.43
[3]; [6]
  In vivo distribution, Blood: 0.15 % ID/g
  In vivo distribution, Bone: 0.47 % ID/g
  In vivo distribution, Heart: 0.11 % ID/g
  In vivo distribution, Intestine: 1.26 % ID/g
  In vivo distribution, Kidney: 3.59 % ID/g
  In vivo distribution, Liver: 1.33 % ID/g
  In vivo distribution, Lung: 0.45 % ID/g
  In vivo distribution, Muscle: 0.05 % ID/g
  In vivo distribution, Spleen: 0.20 % ID/g
  In vivo distribution, Stomach: 0.23 % ID/g
  In vivo distribution, Tail: 0.53 % ID/g
  In vivo distribution, Tumor: 0.39 % ID/g
  Tumor/blood: 2.67
  Tumor/kidney: 0.11
  Tumor/liver: 0.30
  Tumor/muscle: 8.44
[3]
  intake when PSMA was blocked with PMPA: the intake was decreased
  tissue with highest intake: the highest intake in the kidney
[4]
  tumor intake in SPECT image with PSMA blocked: tumor intake was not observed
[4]; 1 hour after the injection
  tumor intake in SPECT image: the increase in radioactivity was evident
[4]; 4 hours after the injection
  tumor intake in SPECT image: the intake was more distinct
[4]; tail vein injection
  distribution observed in SPECT image: not only excreted by the kidney but also ingested into the prostate cancer tissue
[4]; tail vein injection, FIGS. 4A and 5A
  intake in prostate cancer in SPECT image, compared between the two labeled compounds: higher intake in prostate cancer

From patent publication US12486294B2, “Radioisotope labeled compound for imaging or treatment of prostate cancer” (SEOUL NATIONAL UNIVERSITY R&DB FOUNDATION, priority 2019, dated 2025)
